Source: patent US20230416257A1, “TOLL-LIKE RECEPTOR AGONIST” (priority 2020, published 2023)

Test system: antigen-specific T cells in the draining lymph nodes (LN) and spleen
Experiment: A/Vic murine vaccine model: cytokine secretion by antigen-stimulated T cells
Type: in vivo
Conditions: immunized mice, 5 days after tertiary immunization (day 33); comparison of UM-2014 and UM-1007; FIG. 4
Protocol: The adjuvanticity of liposomal formulations of UM-2014 (1 and 10 μg doses) was evaluated in an A/Vic murine vaccine model. Mice were intramuscularly immunized at day 0, 14, and 28, with blood collection at day 14 and day 28 (14dp1 and 14dp2, respectively). A tertiary immunization at day 28 was administered to assess cytokine production of antigen-specific T cells in the draining lymph nodes (LN) and spleen 5 days later (day 33).

With `CCCCCCCCCCCCCCCC(=O)OC[C@H](COCCOCCOCCOP(=O)(O)OCCN1CCC(Cn2c(O)nc3c(N)nc(O[C@@H](C)CCC)nc32)CC1)OC(=O)CCCCCCCCCCCCCCC` [UM-1007] the “cytokine secretion by antigen-stimulated T cells from draining LNs and spleen” value was “very similar”.
